In brackets after ≈: the same amount, converted by molar mass. Counter-ions that a name gives are not always drawn.

One assay has as its system Helicobacter pylori. Kind of assay: Minimal inhibitory concentration (MIC) against Helicobacter pylori, urease read-out, 5 clinical strains. The following applies: 5 H. pylori clinical strains, 10% blood agar, 48 h at 37° C., microaerophilic, read-out: MIC. It is filed as cell-based. Here is the method: The anti-Helicobacter activity of the subject compounds was assessed by the following in-vitro test procedure.
The activity of test compounds against Helicobacter pylori was determined against a standard set of 5 H. priori strains obtained from clinical material. Minimal inhibitory concentrations (MICs) were determined by measuring the activity of H. pylori urease after treatment of growing cultures of the bacteria with the antimicrobial agents.
The test compounds were dissolved in DMSO at a concentration of 10^-3 M. A dilution to 10^-4 M in DMSO was also prepared. 10 μl volumes of these solutions were pipetted in the wells of Repli-Dishes (®Sterilin). Wells containing DMSO alone were included as controls in each Repli-Dish. Ampicillin ((+)-6-[(2-amino-2-phenylacetyl)amino]-3,3-dimethyl-7-oxo-4-thia-1-azabicyclo[3.2.0]heptane-2-carboxylic acid trihydrate) and metronidazole (2-methyl-5-nitro-1H-imidazol-1-ethanol) were included as reference compounds in each batch of tests. (These compounds were tested at final concentrations of 10^-5, 10^-6, 10^-7 and 10^-8 M). Test plates were stored at 4° C. until used. The five isolates of H. pylori were maintained by subculture on 10% blood agar every 2 or 3 days. The bacteria were grown at 37° C. under an atmosphere containing 5% oxygen, 10% CO2 and 85% nitrogen. Suspensions of Helicobacter pylori for inoculum were prepared in Brain-heart infusion broth and adjusted to an absorbance of 1.5±0.3 at […].
Freshly prepared 10% blood agar held at 45° C. was added in 1 ml volumes to the wells of the test plates, thus diluting the test compounds to 10^-5 and 10^-6 M. The medium was allowed to cool, then 10 μl volumes of bacterial suspension were pipetted on the agar surface. The plates were incubated for 48 h at 37° C. under the microaerophilic atmosphere described above. […] After the 48 h of incubation, 1 ml volumes of urease broth were gently added to each Repli-Dish well and the plates were incubated at 37° C. for 2 h. 100 μl samples of fluid from each well were then pipetted into the wells of 96-place microdilution plates. A purple colour was interpreted as growth, yellow-orange as no growth of H. pylori. By this means a clear end-point was obtained, from which the inhibitory effects could be determined.
Table 1 summarizes the MIC values determined by the above procedure for a subset of the subject compounds.
As to `CCC(C(O)c1ccc(Cl)cc1)n1ncn(-c2ccc(N3CCN(c4ccc(O)cc4)CC3)nc2)c1=O` (racemic) [compound 14, (±)-2-[1-[(4-chlorophenyl)hydroxymethyl]propyl]-2,4-dihydro-4-[6-[4-(4-hydroxyphenyl)-1-piperazinyl]-3-pyridinyl]-3H-1,2,4-triazol-3-one], the MIC was 0.1 µM (≈ 0.0521 µg/mL).
As to `COc1ccc(C(=O)C(C)n2ncn(-c3ccc(N4CCN(c5ccc(O)cc5)CC4)cc3)c2=O)cc1` (centres unmarked) [compound 35, 2,4-dihydro-4-[4-[4-(4-hydroxyphenyl)-1-piperazinyl]phenyl]-2-[1-(4-methoxy-benzoyl)ethyl]-3H-1,2,4-triazol-3-one], the MIC was 10 µM (≈ 5 µg/mL).
Same read-out and setting: the same measure for `Cc1nn(CC(O)c2ccc(OC(F)(F)F)cc2)c(=O)n1-c1ccc(N2CCN(c3ccc(O)cc3)CC2)cc1` (racemic) [compound 36, (±)-2,4-dihydro-4-[4-[4-(4-hydroxyphenyl)-1-piperazinyl]phenyl]-2-[2-hydroxy-2-[4-(trifluoromethoxy)-phenyl]ethyl]-5-methyl-3H-1,2,4-triazol-3-one]: 10 µM (≈ 5.56 µg/mL); for `Cc1cc(N2CCN(c3ccc(-n4c(C)nn([C@H](C)[C@H](O)c5ccc(Cl)cc5Cl)c4=O)cc3)CC2)cc(C)c1O` (single isomer, unassigned) [compound 32, (+)-(R*,R*)-2-[2-(2,4-dichlorophenyl)-2-hydroxy-1-methylethyl]-2,4-dihydro-4-[4-[4-(4-hydroxy-3,5-dimethylphenyl)-1-piperazinyl]phenyl]-5-methyl-3H-1,2,4-triazol-3-one dihydrate]: 1 µM; for `CCC(C(=O)c1ccc(Cl)cc1)n1ncn(-c2ccc(N3CCN(c4ccc(OC)cn4)CC3)nc2)c1=O` (racemic) [compound 37, (±)-2-[1-(4-chlorobenzoyl)propyl]-2,4-dihydro-4-[6-[4-(5-methoxy-2-pyridinyl) -1-piperazinyl]-3-pyridinyl]-3H-1,2,4-triazol-3-one]: 0.1 µM (≈ 0.0534 µg/mL).
In the case of `CCC(C(=O)c1ccc(Cl)cc1)n1ncn(-c2cnc(N3CCN(c4ccc(OC)cc4)CC3)nc2)c1=O` (racemic) [compound 8, (±)-2-[1-(4-chlorobenzoyl)propyl]-2,4-dihydro-4-[2-[4-(4-methoxyphenyl)-1-piperazinyl]-5-pyrimidinyl]-3H-1,2,4-triazol-3-one], the MIC stood at 0.1 µM (≈ 0.0534 µg/mL).
`CCC(C(=O)c1ccc(Cl)cc1)n1ncn(-c2ccc(N3CCN(c4ccc(OC)cc4)CC3)nc2)c1=O` (racemic) [compound 1, (±)-2-[1-(4-chlorobenzoyl)propyl]-2,4-dihydro-4-[6-[4-(4-methoxyphenyl)-1-piperazinyl]-3-pyridinyl]-3H-1,2,4-triazol-3-one]: the MIC is 0.1 µM (≈ 0.0533 µg/mL).
Still for that read-out and setting: with `CCC(C(=O)c1ccc(Cl)cc1)n1ncn(-c2ccc(N3CCC(c4ccc(OC)c(OC)c4)CC3)nc2)c1=O` (racemic) [compound 45, (±)-2-[1-(4-chlorobenzoyl)propyl]-4-[6-[4-(3,4-dimethoxyphenyl)-1-piperidinyl]-3-pyridinyl]-2,4-dihydxo-3H-1,2,4-triazol-3-one] the figure was 0.01 µM (≈ 0.00562 µg/mL).
For the molecule `Cc1nn(C(C)C(O)c2ccc(Br)cc2)c(=O)n1-c1ccc(N2CCN(c3ccc(O)cc3)CC2)nc1` (centres unmarked) [compound 23, 2-[2-(4-bromophenyl)-2-hydroxy-1-methylethyl]-2,4-dihydro-4-[6-[4-(4-hydroxy-phenyl)-1-piperazinyl]-3-pyridinyl]-5-methyl-3H-1,2,4-triazol-3-one], the minimum inhibitory concentration (MIC) came to 1 µM (≈ 0.565 µg/mL).
Still for that read-out and setting: the same measure for `CCC(C(=O)c1ccc(Cl)cc1)n1ncn(-c2cnc(N3CCN(c4ccc(O)cc4)CC3)nc2)c1=O` (racemic) [compound 26, (±)-2-[1-(4-chlorobenzoyl)propyl]-2,4-dihydro-4-[2-[4-(4-hydroxyphenyl)-1-piperazinyl]-5-pyrimidinyl]-3H-1,2,4-triazol-3-one]: 0.1 µM (≈ 0.052 µg/mL); for `CCC(C(=O)c1ccc(Cl)cc1)n1ncn(-c2ccc(N3CCN(c4ccccc4OC)CC3)nc2)c1=O` (racemic) [compound 5, (±)-2-[1-(4-chlorobenzoyl)propyl]-2,4-dihydro-4-[6-[4-(2-methoxyphenyl)-1-piperazinyl]-3-pyridinyl]-3H-1,2,4-triazol-3-one]: 0.1 µM (≈ 0.0533 µg/mL).
Still for that read-out and setting: with `CCC[C@H]([C@H](O)c1ccc(Cl)cc1)n1ncn(-c2ccc(N3CCN(c4cccc(OC)c4)CC3)nc2)c1=O` (relative stereo) [compound 40, (±)-(R* ,R*)-2-[1-[(4-chlorophenyl)hydroxymethyl]butyl]-2,4-dihydro-4-[6-[4-(3-methoxyphenyl)-1-piperazinyl]-3-pyridinyl]-3H-1,2,4-triazol-3-one] the figure was 0.1 µM (≈ 0.0549 µg/mL); with `CCC(C(=O)c1ccc(Cl)cc1)n1ncn(-c2ccc(N3CCN(c4ccccc4O)CC3)nc2)c1=O` (racemic) [compound 29, (±)-2-[1-(4-chlorobenzoyl)propyl]-2,4-dihydro-4-[6-[4-(2-hydroxyphenyl)-1-piperazinyl]-3-pyridinyl]-3H-1,2,4-triazol-3-one], 0.1 µM (≈ 0.0519 µg/mL).
With `CCC(C(=O)c1ccc(Cl)cc1)n1ncn(-c2ccc(N3CCN(c4ccc(OC)c(OC)c4)CC3)nc2)c1=O` (racemic) [compound 48, (±) -2-[1-(4-chlorobenzoyl)propyl]-4-[6-[4-(3,4-dimethoxyphenyl)-1-piperazinyl]-3-pyridinyl]-2,4-dihydro-3H-1,2,4-triazol-3-one dihydrochloride], the MIC is ≤ 0.001 µM.
Consider `CCC(C(=O)c1ccc(Cl)cc1)n1ncn(-c2ccc(N3CCN(c4ccc(O)cc4)CC3)nc2)c1=O` (racemic) [compound 25, (±)-2-[1-(4-chlorobenzoyl)propyl]-2,4-dihydro-4-[6-[4-(4-hydroxyphenyl)-1-piperazinyl]-3-pyridinyl]-3H-1,2,4-triazol-3-one], for which the MIC was 0.1 µM (≈ 0.0519 µg/mL).
On the same count and under the same terms, the same measure for `Cc1cn(C(C)C(O)c2ccc(Cl)cc2)c(=O)n1-c1ccc(N2CCN(c3ccc(O)cc3)CC2)cc1` (centres unmarked) [compound 11, 1-[2-(4-chlorophenyl)-2-hydroxy-1-methylethyl]-1,3-dihydro-3-[4-[4-(4-hydroxyphenyl)-1-piperazinyl]phenyl]-4-methyl-2H-imidazol-2-one]: 1 µM (≈ 0.519 µg/mL); for `Cc1ccc(C(O)C(C)n2ncn(-c3ccc(N4CCN(c5ccc(O)cc5)CC4)cc3)c2=O)cc1` (centres unmarked) [compound 33, 2,4-dihydro-2-[2-hydroxy-1-methyl-2-(4-methylphenyl)ethyl]-4-[4-[4-(4-hydroxyphenyl)-1-piperazinyl]phenyl]-3H-1,2,4-triazol-3-one]: 1 µM (≈ 0.486 µg/mL).
As to `CCC(C)(C(O)c1ccc(Br)cc1)n1nc(C)n(-c2ccc(N3CCN(c4ccc(O)cc4)CC3)cc2)c1=O` (racemic) [compound 13, (±)-2-[1-[(4-bromophenyl)hydroxymethyl]-1-methylpropyl]-2,4-dihydro-4-[4-[4-(4-hydroxyphenyl)-1-piperazinyl]phenyl]-5-methyl-3H-1,2,4-triazol-3-one], the minimum inhibitory concentration (MIC) is 0.1 µM (≈ 0.0593 µg/mL).
Same read-out and setting: the same measure for `CCC(C(=O)c1ccc(Cl)cc1)n1ncn(-c2ccc(N3CCN(c4cccc(O)c4)CC3)nc2)c1=O` (racemic) [compound 28, (±)-2-[1-(4-chlorobenzoyl)propyl]-2,4-dihydro-4-[6-[4-(3-hydroxyphenyl)-1-piperazinyl]-3-pyridinyl]-3H-1,2,4-triazol-3-one]: 0.01 µM (≈ 0.00519 µg/mL).
The same measure, in the same setting: with `CCC(C(=O)c1ccc(Cl)cc1)n1ncn(-c2ccc(N3CCN(c4cccc(OC)c4)CC3)nc2)c1=O` (racemic) [compound 4, (±)-2-[1-(4-chlorobenzoyl)propyl]-4-[6-[4-(3-methoxyphenyl)-1-piperazinyl]-3-pyridinyl]-2,4-dihydro-3H-1,2,4-triazol-3-one] the figure was 0.01 µM (≈ 0.00533 µg/mL); with `Cc1nn(C(C)(C)C(O)c2ccc(Br)cc2)c(=O)n1-c1ccc(N2CCN(c3ccc(O)cc3)CC2)cc1` (racemic) [compound 22, (±)-2-[2-(4-bromophenyl)-2-hydroxy-1,1-dimethylethyl]-2,4-dihydro-4-[4-[4-(4-hydroxyphenyl)-1-piperazinyl]phenyl]-5-methyl-3H-1,2,4-triazol-3-one], 1 µM (≈ 0.579 µg/mL).
The same measure, in the same setting: with `CCC(C(=O)c1ccc(Cl)cc1)n1ncn(-c2ccc(N3CCN(c4ccc(O)cn4)CC3)cc2)c1=O` (racemic) [compound 27, (±)-2-[1-(4-chlorobenzoyl)propyl]-2,4-dihydro-4-[4-[4-(5-hydroxy-2-pyridinyl)-1-piperazinyl]phenyl]-3H-1,2,4-triazol-3-one] the figure was 0.1 µM (≈ 0.0519 µg/mL).

The assay is the same for the next values; noted with them: 48 h.
As to `CC(C(=O)c1ccc(Br)cc1)n1ncn(-c2ccc(N3CCN(c4ccc(O[Si](C)(C)C(C)(C)C)cc4)CC3)cc2)c1=O` (centres unmarked) [compound 47, 2-[1-(4-bromobenzoyl)ethyl]-4-[4-[4-[4-[[(1,1-dimethylethyl)dimethylsilyl]oxy]phenyl]-1-piperazinyl]phenyl]-2,4-dihydro-3H-1,2,4-triazol-3-one], the minimum inhibitory concentration (MIC) turned out to be 1 µM (≈ 0.663 µg/mL).

For the origin of these results see patent US5650411A, “Substituted azolone derivatives” (Janssen Pharmaceutica N.V., priority 1993, dated 1997).
